Laboratory results taken from patent US9757364B2, “Naphthyridine derivative compounds” (ASTEX THERAPEUTICS LIMITED, priority 2011, dated 2017).
Read-outs that look alike come from different tables or passages of the source.

How the values were obtained:
Experiment in all cases: cells
[1] = test system: Ba/F3-Flt3-transfected cells; conditions: read-out: BAF3-FLT3 (MIN IL3) pIC50 (converted)
Protocol: Ba/F3-Flt3 (Minus IL3 or Plus IL3) (Cellular Proliferation Assay)
(§1) Cells were put in an incubator at 37° C. and 5% CO2.
(§2) As a counterscreen the same experiment was performed in the presence of 10 ng/ml murine IL3.

[2] = test system: Ba/F3-KDR-transfected cells
Protocol: Ba/F3-KDR (Minus IL3 or Plus IL3) (Cellular Proliferation Assay)
as §1, §2

[3] = test system: Ba/F3-FGFR1-transfected cells
Protocol: Ba/F3-FGFR1 (Minus IL3 or Plus IL3) (Cellular Proliferation Assay)
as §1, §2

[4] = read-out: BAF3-KDR (MIN IL3) pIC50 (converted)
[5] = read-out: BAF3-KDR (PLUS IL3) pIC50 (converted)

SMILES	IC50 ([1]; 24 h)	IC50 [2, 4]	IC50 [2, 5]	also measured
COc1cc(OC)cc(N(CCO)c2ccc3ncc(-c4cnn(C)c4)cc3n2)c1 [Compound 1]	8.91 µM	–	–	–
COc1cc(OC)cc(N(CCCO)c2ccc3ncc(-c4cnn(C)c4)cc3n2)c1 [Compound 2]	> 10 µM	–	–	–
COCCN(c1cc(OC)cc(OC)c1)c1ccc2ncc(-c3cnn(C)c3)cc2n1 [Compound 3]	> 10 µM	–	–	–
COc1cc(OC)cc(N(CCNC(C)C)c2ccc3ncc(-c4cnn(C)c4)cc3n2)c1 [Compound 4]	7.94 µM	–	–	–
COc1cc(/N=c2\ccc3ncc(-c4cnn(C)c4)cc3n2CCNC(C)C)cc(OC)c1 [Compound 5]	> 10 µM	–	–	–
COc1cc(OC)cc(N(CCN(CCNC(C)C)C(C)C)c2ccc3ncc(-c4cnn(C)c4)cc3n2)c1 [Compound 6]	5.01 µM	–	–	–
COc1cc(OC)cc(N(Cc2nccn2S(=O)(=O)N(C)C)c2ccc3ncc(-c4cnn(C)c4)cc3n2)c1 [Compound 7]	> 10 µM	–	–	–
C#CCN(c1cc(OC)cc(OC)c1)c1ccc2ncc(-c3cnn(C)c3)cc2n1 [Compound 8]	> 10 µM	–	–	–
COc1cc(OC)cc(N(Cc2ncc[nH]2)c2ccc3ncc(-c4cnn(C)c4)cc3n2)c1 [Compound 10]	> 10 µM	–	–	–
COc1cc(OC)c(F)c(N(Cc2ncccn2)c2ccc3ncc(-c4cnn(C)c4)cc3n2)c1F [Compound 14]	–	–	–	IC50 [1]: 7.76 µM
COc1cc(OC)c(F)c(N(CCCO)c2ccc3ncc(-c4cnn(C)c4)cc3n2)c1F [Compound 22]	–	–	–	IC50 [1]: 3.89 µM
COc1cc(OC)c(F)c(N(Cc2ncccn2)c2ccc3ncc(-c4cnn(C)c4)cc3n2)c1 [Compound 27]	–	–	–	IC50 [1]: > 10 µM
COc1cc(OC)c(F)c(N(Cc2nccn2S(=O)(=O)N(C)C)c2ccc3ncc(-c4cnn(C)c4)cc3n2)c1F [Compound 64]	–	–	–	IC50 [1]: 2.45 µM
COc1cc(OC)c(F)c(N(Cc2ncc[nH]2)c2ccc3ncc(-c4cnn(C)c4)cc3n2)c1F [Compound 65]	–	–	–	IC50 [1]: 3.55 µM
COc1cc(OC)cc(N(Cc2nccn2S(=O)(=O)N(C)C)c2cc3cc(-c4cnn(C)c4)cnc3cn2)c1 [Compound 66]	–	> 10 µM	> 10 µM	–
COc1cc(OC)cc(N(Cc2ncc[nH]2)c2cc3cc(-c4cnn(C)c4)cnc3cn2)c1 [Compound 67]	–	> 10 µM	> 10 µM	–
COc1cc(OC)cc(N(CCNC(C)C)c2cc3cc(-c4cnn(C)c4)cnc3cn2)c1 [Compound 68]	–	> 10 µM	> 10 µM	–
COCCN(c1cc(OC)cc(OC)c1)c1cc2cc(-c3cnn(C)c3)cnc2cn1 [Compound 69]	–	> 10 µM	> 10 µM	IC50 ([3]; read-out: BAF3-FGFR1 (MIN IL3) pIC50 (converted)): 8.13 µM; IC50 ([3]; read-out: BAF3-FGFR1 (PLUS IL3) pIC50 (converted)): > 10 µM
CNCCN(c1cc2cc(-c3cnn(C)c3)cnc2cn1)c1cc(OC)cc(OC)c1F [Compound 73]	–	> 10 µM	> 10 µM	–
COc1cc(OC)c(F)c(N(CCCO)c2cc3cc(-c4cnn(C)c4)cnc3cn2)c1 [Compound 75]	–	> 10 µM	> 10 µM	–
COc1cc(OC)c(F)c(N(Cc2nccn2S(=O)(=O)N(C)C)c2cc3cc(-c4cnn(C)c4)cnc3cn2)c1 [Compound 76]	–	> 10 µM	> 10 µM	–
COc1cc(OC)c(F)c(N(Cc2ncc[nH]2)c2cc3cc(-c4cnn(C)c4)cnc3cn2)c1 [Compound 77]	–	> 10 µM	> 10 µM	–
